Laboratory results reported in US11401303B2, “Synthetic peptide BRAP and application in preparation of anti-inflammatory drug for COVID-19 thereof” (TAIAN CITY QIHANG BIOTECHNOLOGY CO., priority 2020, dated 2022).
Ends that are not written are not given here.

Columns and labels:
[1] = system: TNF-a; assay: TNF-a content in blood serum of LPS-induced mice (ELISA); format: in vivo, Balb/C mice
Procedure: 1. A reagent was taken out of a kit and balanced for 30 min at room temperature;
2. standard wells and sample wells were set, and 50 ul standards at different concentrations were respectively added to each standard well.
3. 50 ul sample to be tested (blood sample from each group of mice model constructed in example 9) was first added to the wells of the sample to be tested;
4. 100 ul HRP-labeled detection antibody was respectively added to each standard well and well to be tested;
5. reaction wells were sealed by a microplate membrane for incubation for 60 min at 37° C.;
6. liquid was discarded, water was dried by an absorbent paper, each well was filled with scrubbing solution, standing for 1 min;
7. a culture solution was discarded, water was dried by an absorbent paper, and steps 2-6 were operated repeatedly for 5 times;
8. 50 ul substrate A/B was respectively added to each well for incubation for 15 min at 37° C.;
9. 50 ul stop buffer was added to each well to detect an OD value at 450 nm by an microplate reader within 15 min.

[2] = system: IL-6 mRNA; assay: IL6 mRNA expression in lung tissues of LPS-induced mice by qPCR; format: in vivo, Balb/C mice
Procedure: 1.1 Lung tissue sample: a fresh lung tissue sample from each group of mice constructed in example 9 was taken and quick-frozen by liquid nitrogen as quickly as possible, and kept at […].
2. Extraction of total RNA (a total RNA extraction kit via a paramagnetic particle method was used)
2.1 The tissue sample was cut into small pieces, and ground (50 mg) to powder via liquid nitrogen, and transferred to a 1.5 ml tube free of RNA enzyme (cell sample and other liquid samples required no grinding, and were directly put to the next step).
Using the operational method of Applied Biosystems 7300/7500/7500 Fast Real-Time PCR System and StepOnePlusTMReal-Time PCR System
1. Preparation of a PCR reaction liquid
2. Real Time PCR reaction was performed.
At the end of the reaction, an amplification curve and dissociation curve of Real Time
PCR were confirmed, and 2^−ΔΔct and the like were calculated.

[3] = Limit test on intravenous injection at 2000 mg/kg BW dose level; format: in vivo, Konmin mouse
Procedure: I. Test Animal (Subject): Konmin Mouse: Healthy, Adult, Male, Weight≤20 g, and n=5 pcs
III. Administration Route and Dose: 2000 mg/kg BW was Injected Via a Tail Vein
Administration capacity: the maximum injection capacity of the mice tail vein was 0.5 ml/once, slow injection
Dose and mode of administration: 40 mg/1.5 ml working solution was administered for 3 times within 9 h.
1) a test substance (synthetic peptide brap) having a dose of 2000 mg/kg was injected to the first Konmin mouse via tail vein;
2) whether of causing toxic responses (initial symptom, starting time, namely, time period after administration, severity and duration) was observed and recorded;
3) if the animal died, the response before being at death's door and the occurrence time of death were recorded.

[4] = system: endotoxin; assay: Endotoxin content in blood of LPS-induced mice (LAL kit); format: in vivo, Balb/C mice; settings: low, medium and high dose (4, 8, 16 mg/kgBW i.v.); 6 h after LPS 5 mg/kg BW i.p.; dose-response relationship
Procedure: The detection was performed according to the specification of the endotoxin test LAL (Limulus Amebocyte Lysate) kit:
(1) anticoagulant venous blood of each group of mice constructed in example 9 was taken and centrifuged for 2 min at 3000 rpm/min; 100 ul supernate was taken and added to a 0.9 ml sample treating fluid;
(2) the above sample was put in a 70° C. dry-heat sterilization box for 10 min, then cooled by running water;
(3) concentration gradient of an endotoxin standard was 1.0, 0.5, 0.25 and 0.1 EU/ml;
(4) several endotoxin-free test tubes were taken, and 100 ul water for detecting bacterial endotoxin, an endotoxin standard and a test product were added respectively;
(6) 100 ul TAL solution was added, mixed evenly, and covered by a silver paper, and incubated for 10 min at 37° C.;
(7) 100 ul developing-matrix solution was added, mixed evenly, and incubated for 6 min at 37° C.;
(8) 500 ul azo reagent 1 was added and mixed evenly;
(9) 500 ul azo reagent 2 was added and mixed evenly;
(10) 500 ul azo reagent 3 was added, mixed evenly, standing for 5 min;
(11) OD value was measured at 545 nm.

[5] = biological target: T1, Bradykinin B1 receptor (Homo sapiens, UniProt P46663); format: cell-based
T1 construct: host or cells: HEK293/Gα15/B1
T1 sequence (P46663 1-353): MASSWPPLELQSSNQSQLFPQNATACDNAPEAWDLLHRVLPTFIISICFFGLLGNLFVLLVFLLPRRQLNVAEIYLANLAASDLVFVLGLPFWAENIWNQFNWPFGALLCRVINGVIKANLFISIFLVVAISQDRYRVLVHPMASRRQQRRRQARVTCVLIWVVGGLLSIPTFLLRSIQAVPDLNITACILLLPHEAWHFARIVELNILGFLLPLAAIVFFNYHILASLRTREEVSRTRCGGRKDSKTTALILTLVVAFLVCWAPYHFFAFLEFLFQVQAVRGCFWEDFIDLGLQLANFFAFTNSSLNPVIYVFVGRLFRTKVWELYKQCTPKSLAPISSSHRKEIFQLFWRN

[6] = system: ROS; assay: ROS fluorescence intensity in lung tissue of LPS-induced mice by flow cytometry; format: in vivo, Balb/C mice
Procedure: 1. About 100 mg fresh left lung tissue from each group of mice constructed in example 9 was taken and washed for three times with PBS to remove blood;
2. the tissue was put in a nylon net, ground by a grinding rod, and washed by PBS;
3. a cell suspension was collected, and filtered by a 200-mesh sieve to remove tissue blocks;
4. the cell suspension was collected and centrifuged for 5 min at 1000 rpm/min;
5. cellular supernatant was removed and PBS was added for resuspending;
6. 10 μmol/L DCFH-DA was prepared with a serum-free culture solution;
7. cells were centrifuged to remove PBS, and the above probe diluent was added to make the cell concentration being 10^6/ml;
8. the cells were incubated for 30 min at 37° C., and shaken off for once every 3 min;
9. the cells were centrifuged for 5 min at 1000 rpm/min, and cell precipitates were resuspended on a serum-free culture medium;
10. step 9 was repeated for twice;
11. 500 μL PBS was added to resuspend cells, and flow cytometry was used to detect mean fluorescence intensity.

[7] = 2000 mg/kg BW via tail vein in 3 injections, individual mouse

## RVLNGPEAPA [brap]
[1]; low, medium and high-dose intravenous injection groups, p<0.01
  TNF-a level in serum compared with the model group: dose-response relationship
[1]; nasal dripping group, at 12 h, P<0.05
  TNF-a level in LPS-induced blood: can decrease
[2]; intranasal administration
  IL-6 mRNA overexpression in lung tissues: obviously decrease the overexpression
[2]; intravenous injection
  IL-6 mRNA overexpression in lung tissues: obviously decrease the overexpression
[3]; [7]
  Death situation/survival animals, 72 h after administering: No death
  Toxic response manifestation: No abnormal
[3]; intravenous injection of 2000 mg/kg BW, mice n=5
  Toxicity in the limit test: no toxicity was found
[3]; male, Konmin, in vivo, 2000 mg/kg BW, intravenous, mouse, judgment rule if survival animals ≥3 (5 of 5 survived)
  LD50 at 9 h: > 2000 mg/kg
[4]
  Blood endotoxin level compared with the model group: obviously below that in the model group
[5]
  Effect of compound acting together with EC10 and EC20: no obvious effect
  Inhibitory activity on B1 receptor activation by EC80 irritant: obviously inhibited
[6]; induced by LPS for 6 h
  ROS content in lung tissues: obviously reducing the increase in ROS content
[6]; induced by LPS for 12 h
  ROS content in lung tissue: obviously reducing the increase in ROS content
[6]; intranasal administration, LPS-induced mice
  ROS content in lung tissues: reducing the overly increased ROS content
[6]; intravenous injection, LPS-induced mice
  ROS content in lung tissues: obviously decreases the overly increased ROS content
